These results are taken from ChEMBL document CHEMBL1201862, “PubChem BioAssay data set” (2004).

SMILES strings stand for the structures.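 Compound exposure: 48 hours, 5 concentrations, 96-well plates. The concentration for 50% growth inhibition is given as GI50.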 Activity calls are given as the source filed them. Cut-off read from the data, not from the text of the source: active = GI50 up to about 1.1 µM and inactive = higher.

Test in all cases: NCI-60 cell line screen, 48 h
The subject of test [1] is COLO 205.
The subject of test [2] is BT-549.
Test [3] deals with HOP-62.
Test [4] has as its system HCT-15.
In test [5] the test system is NCI-H23.
Test [6] relates to T47D.
The subject of test [7] is HT-29.
The test system of test [8] is HCC 2998.
For test [9], the system named is U-251.
Test [10] deals with SK-OV-3.
For test [11], the system named is SF-295.
In test [12] the test system is UO-31.
In test [13] the test system is A498.
For test [14], the system named is NCI-H460.
Test [15] has as its system IGROV-1.
Test [16] relates to 786-0.
Test [17] concerns PC-3.
In test [18] the test system is RPMI-8226.
Test [19] deals with HL-60.
Test [20] deals with SR.

For the compound `COc1ccc2c(c1)nc1n2C(c2c(Cl)cccc2Cl)SC1` (configuration not stated), the GI50 in test [1] was 4.63 µM (inactive); in [2] it was > 67.3 µM (inactive); in test [3], 32.9 µM (inactive); in [4] it was 5.81 µM; in test [5], 38.4 µM (inactive); in test [6] it was 16.9 µM (inactive). The GI50 in test [7] was 15.2 µM (inactive); in test [8], 11.2 µM (inactive); in [9], 21.4 µM (inactive); in test [10], > 51.9 µM (inactive); in test [11], 5.71 µM (inactive); in test [12], 46.5 µM (inactive). Besides, the GI50 in [13] is 46.5 µM (inactive); in [14], 12.1 µM (inactive); in test [15], 18.1 µM (inactive); in test [16] it was 21.3 µM (inactive); in test [17], > 33.3 µM (inactive); in test [18], > 23.5 µM (inactive).

Consider `CNc1nc(SC)nc2c1c(N)nn2C`, for which the GI50 in test [1] was > 100 µM (inactive); in test [2], > 100 µM (inactive); in test [3], > 100 µM (inactive); in test [4] it was above 100 µM; in [5], > 100 µM (inactive); in test [6] it was > 100 µM (inactive). For the same compound, the GI50 in [7], in test [8], in test [9], in test [10], in test [11] and in [12] was > 100 µM (inactive) throughout. Besides, the GI50 is 99.5 µM (inactive) in test [13]; > 100 µM (inactive) in test [14]; 78 µM (inactive) in test [15]; > 100 µM (inactive) in test [16]; > 100 µM (inactive) in [17]; > 100 µM (inactive) in test [18].

Turning to `Cc1ccc(S(=O)(=O)NC(=O)C2C(=O)CC3(CCCCC3)CC2=O)cc1`, the GI50 is 17.9 µM (inactive) in [1]; 27.5 µM (inactive) in [2]; 25.4 µM (inactive) in [3]; 23.2 µM in test [4]; 46 µM (inactive) in [5]; 20 µM (inactive) in test [6]. The GI50 in test [7] was 32.7 µM (inactive); in [9], 38.4 µM (inactive); in [19], 29.5 µM (inactive); in test [10], 28.2 µM (inactive); in test [11], 22 µM (inactive); in test [12] it was 22.4 µM (inactive). In addition, the GI50 in test [13] is 28.4 µM (inactive); in [14], 25.2 µM (inactive); in [15] it was 29.4 µM (inactive); in test [16] it was 25.9 µM (inactive); in [17] it was 25.6 µM (inactive); in [18], 23.1 µM (inactive).

As for `C=C(C1=CC(=O)C(C)(C)O1)[C@@H]1CC=C([C@@H]2CC[C@H]3[C@@]2(C)CC[C@H]2C(C)(C)C(=O)[C@H](OC(=O)CC(C)(O)CC(=O)O)C[C@]32C)[C@H](O)O1` (some centres not stated), the GI50 in [1] is 12.5 µM (inactive); in test [2], 2.06 µM (inactive); in test [3], 21.1 µM (inactive); in test [20], 12.6 µM (inactive); in test [4], 13.3 µM; in test [5], 13.6 µM (inactive). In addition, the GI50 was 16.8 µM (inactive) in [7]; 13.5 µM (inactive) in test [9]; 17.7 µM (inactive) in test [19]; 19.2 µM (inactive) in test [10]; 36.4 µM (inactive) in test [11]; 13.6 µM (inactive) in test [12]. Also, the GI50 is 13 µM (inactive) in test [13]; 15.9 µM (inactive) in test [14]; 12.4 µM (inactive) in test [15]; 11.1 µM (inactive) in [16]; 13.2 µM (inactive) in test [17]; 2.48 µM (inactive) in [18].

For the compound `CC(CO)(Nc1ccc([N+](=O)[O-])cc1[N+](=O)[O-])C(=O)O` (configuration not stated), the GI50 is 16.9 µM (inactive) in test [1]; 29.5 µM (inactive) in test [2]; 49.1 µM (inactive) in [3]; 12.1 µM (inactive) in test [20]; 17.6 µM in test [4]; 27.8 µM (inactive) in test [5]. The GI50 was 16.7 µM (inactive) in [7]; 22.4 µM (inactive) in test [8]; 22.9 µM (inactive) in test [9]; 17.6 µM (inactive) in test [19]; 68.9 µM (inactive) in [11]; 15.9 µM (inactive) in test [12]. Further, the GI50 was 15.5 µM (inactive) in test [14]; 20 µM (inactive) in test [15]; 71 µM (inactive) in [16]; 64.6 µM (inactive) in [17]; 29.3 µM (inactive) in test [18].

As for `Cc1csc2c(=O)n(C3OC(CO)C(O)C3O)c(=O)[nH]c12` (configuration not stated), the GI50 in test [1], in [2], in test [3], in test [20], in [5] and in [7] was > 100 µM (inactive) each time. The GI50 in test [9], in [19], in test [11], in [12], in [13] and in test [14] was > 100 µM (inactive) each time. The GI50 in test [15], in test [16], in [17] and in test [18] was > 100 µM (inactive) each time.

In the case of `CCOC(=O)C1=CC(C)(C(=O)OCC)Nc2c(nc(N)[nH]c2=O)N1` (configuration not stated), the GI50 in test [1] was > 10 µM (inactive); in test [2] it was 7.31 µM (inactive); in test [3] it was > 10 µM (inactive); in [4], above 10 µM; in [5], > 10 µM (inactive); in test [6] it was > 10 µM (inactive). The GI50 in [7], in test [8], in test [9], in test [10], in test [11] and in test [12] was > 10 µM (inactive) each time. Besides, the GI50 in [13], in [14], in test [15], in test [16], in test [17] and in test [18] was > 10 µM (inactive) throughout.

As to `CC(=O)O[C@H]1C(=O)[C@@]2(C)[C@H]([C@H](OC(=O)c3cccc([N+](=O)[O-])c3)[C@]3(O)C[C@H](OC(=O)[C@H](O)[C@@H](NC(=O)c4ccccc4)c4ccccc4)C(C)=C1C3(C)C)[C@]1(OC(C)=O)CO[C@@H]1C[C@@H]2O`, the GI50 was 0.00474 µM (active) in [1]; 0.0376 µM (active) in [2]; 0.0107 µM (active) in test [3]; 0.00447 µM (active) in test [20]; 0.438 µM in [4]; 0.00912 µM (active) in test [5]. Further, the GI50 in test [7] was 0.0043 µM (active); in test [8], 0.00762 µM (active); in test [9], 0.00681 µM (active); in test [19] it was < 0.0025 µM (active); in [10], 0.00703 µM (active); in test [11], 0.0155 µM (active). In addition, the GI50 in test [12] is 0.568 µM (active); in [13], 0.005 µM (active); in [14], 0.00601 µM (active); in [15], 0.00783 µM (active); in test [16] it was 0.0159 µM (active); in test [17] it was 0.0065 µM (active). Further, in test [18], the GI50 is 0.00341 µM (active).
